Marks after values point to notes of the source that are not given here.

This passage reports EC50 and ADCC efficacy results from US20190336489A1, “NON PEPTIDE HETEROBIVALENT MOLECULES FOR TREATING INFLAMMATORY DISEASES” (GLAXOSMITHKLINE INTELLECTUAL PROPERTY DEVELOPMENT LIMITED, priority 2017, published 2019).

Format in all cases: cell-based
Assay [1] concerns the target T1, CCR1 (Homo sapiens, UniProt P32246).
T1 construct: expressed in transfected cells; host or cells: CHOK1
T1 sequence (P32246 1-355): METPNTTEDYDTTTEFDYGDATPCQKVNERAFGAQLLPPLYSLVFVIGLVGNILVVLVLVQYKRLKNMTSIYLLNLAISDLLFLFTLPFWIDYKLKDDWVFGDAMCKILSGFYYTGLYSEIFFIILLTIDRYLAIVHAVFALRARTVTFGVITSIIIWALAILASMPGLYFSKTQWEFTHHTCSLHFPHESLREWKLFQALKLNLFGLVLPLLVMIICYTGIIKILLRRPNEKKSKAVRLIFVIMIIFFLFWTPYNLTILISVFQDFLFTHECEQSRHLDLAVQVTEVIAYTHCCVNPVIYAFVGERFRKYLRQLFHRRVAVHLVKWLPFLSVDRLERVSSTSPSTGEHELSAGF
As to the kind of experiment: Antibody Dependent Cellular Cytotoxicity (ADCC) reporter assay, CCR1 target cells. Particulars: CHOK1 cells overexpressing CCR1. The text has this: (§1) The compounds described herein have been characterized in an ADCC reporter assay (see Section 1.2 ADCC reporter for protocol). […] Furthermore, the assay also confirms that this formed complex can engage and activate the Fc receptors on immune cells. Lastly, the assay provides both potency (EC50) and efficacy (signal to background ratio) for each compound in a dose dependant manner.
(§2) This assay has four components • 1) Heterobivalent Compound consisting of a targeting ligand and a hapten connected by a linker (ranging from 10 uM-1 pM) • 2) A hapten antibody with functional Fc domain (typical concentrations are 0.01 ug/mL-200 ug/mL) • 3) Target cells—CHOK1 cells engineered to overexpress either CCR1, CCR2, or CCR3, or CEMNKR cells engineered to overexpress CCR5 (typically 1000-20,000 cells per well) • 4) Reporter cells—Jurkat cells engineered to express FcgRIIIa (ADCC reporter assay) and with a reporter gene (luciferase) under the control of the NFAT promoter (typically 3000-75,000 cells per well)
(§3) Reagents are combined in final volume of 20 uL in 384-well tissue culture treated plated.
(§4) All components are incubated together for ˜12-18 hours. Add BioGlo Detection reagent (from Promega) to lyse the cells and provide substrate for the luciferase reporter protein. Signal is measured on a microplate reader capable of measuring luminescence. Signal:Background is calculated by dividing the signal of a test well by the signal obtained when no compound is included in the assay. EC50 calculations were done using Graphpad Prism Software, specifically a nonlinear regression curve fit (Y=Bottom+(Top−Bottom)/(1+10^((Log EC50−X)*HillSlope)))

Assay [2] addresses T2, CCR3 (Homo sapiens, UniProt P51677).
T2 construct: expressed in transfected cells; host or cells: CHOK1
T2 sequence (P51677 1-355): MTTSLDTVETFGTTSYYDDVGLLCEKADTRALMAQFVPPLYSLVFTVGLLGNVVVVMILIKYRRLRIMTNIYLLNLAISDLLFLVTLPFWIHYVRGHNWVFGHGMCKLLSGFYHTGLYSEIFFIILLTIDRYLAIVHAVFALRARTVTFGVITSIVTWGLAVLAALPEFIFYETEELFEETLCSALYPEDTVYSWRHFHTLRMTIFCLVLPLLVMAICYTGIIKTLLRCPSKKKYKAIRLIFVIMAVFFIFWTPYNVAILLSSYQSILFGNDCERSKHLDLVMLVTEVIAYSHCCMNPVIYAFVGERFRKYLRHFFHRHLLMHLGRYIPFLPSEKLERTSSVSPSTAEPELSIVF
Description: Antibody Dependent Cellular Cytotoxicity (ADCC) reporter assay, CCR3 target cells. Particulars: CHOK1 cells overexpressing CCR3.
Excerpt: as §1, §2, §3, §4

In assay [3] the target is T3, CCR5 (Homo sapiens, UniProt P51681).
T3 construct: expressed in transfected cells; host or cells: CEMNKR
T3 sequence (P51681 whole entry): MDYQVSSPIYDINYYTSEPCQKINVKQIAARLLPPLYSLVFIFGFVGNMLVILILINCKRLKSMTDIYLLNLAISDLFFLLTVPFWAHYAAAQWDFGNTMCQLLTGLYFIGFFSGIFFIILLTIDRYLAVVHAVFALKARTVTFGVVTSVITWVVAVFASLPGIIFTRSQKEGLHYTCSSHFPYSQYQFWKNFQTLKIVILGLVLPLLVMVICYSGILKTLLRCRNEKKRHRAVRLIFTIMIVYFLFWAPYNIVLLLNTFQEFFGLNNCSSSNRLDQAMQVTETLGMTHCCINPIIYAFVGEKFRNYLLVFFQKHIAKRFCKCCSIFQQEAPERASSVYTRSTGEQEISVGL
As to the kind of experiment: Antibody Dependent Cellular Cytotoxicity (ADCC) reporter assay, CCR5 target cells. As to conditions: CEMNKR cells overexpressing CCR5.
Excerpt: as §1, §2, §3
All components are incubated together for ˜12-18 hours. […] Signal is measured on a microplate reader capable of measuring luminescence. Signal:Background is calculated by dividing the signal of a test well by the signal obtained when no compound is included in the assay. […]
In general terms: A reporter such as luciferase makes a cellular process visible.

[4] abbreviates: Jurkat FcgRIIIa NFAT-luciferase reporter cells, EC50 class, read-out: ADCC potency.
Setting [5] is: maximum signal:background (S/B).

In the case of `CC(C)[C@@H](NC(=O)c1cccc(C(=O)NCCOCCOCCOCCOCCOCCOCCOCCOCCC(=O)NCCOCCOCCOCCOCCOCCOCCOCCOCCOCCOCCOCCNC(=O)CCCC[C@@H]2SC[C@@H]3NC(=O)N[C@@H]32)c1)C(=O)N1CCC(c2ccc(Cl)cc2)CC1` [Compound 5, N1-((R)-1-(4-(4-chlorophenyl)piperidin-1-yl)-3-methyl-1-oxobutan-2-yl)-N3-(27,65-dioxo-69-((3aS,4S,6aR)-2-oxohexahydro-1H-thieno[3,4-d]imidazol-4-yl)-3,6,9,12,15,18,21,24,31,34, 37,40,43,46,49,52,55,58,61-nonadecaoxa-28,64-diazanonahexacontyl)isophthalamide], the EC50 in assay [1] (setting [4]) was in the range of 100 to 1000 nM. In addition, the ADCC efficacy entry in assay [1] (setting [5]) was “+^d (between 6-8 = +)”.
As for `O=C(NCc1ccc(C(=O)NCCOCCOCCOCCOCCOCCOCCOCCOCCOCCNc2ccc([N+](=O)[O-])cc2[N+](=O)[O-])cc1)NC[C@H]1CN(Cc2ccc(Cl)c(Cl)c2)CCO1` [Compound 20, (S)-4-((3-((4-(3,4-dichlorobenzyl)morpholin-2-yl)methyl)ureido)methyl)-N-(29-((2,4-dinitrophenyl)amino)-3,6,9,12,15,18,21,24,27-nonaoxanonacosyl)benzamide], the EC50 in assay [2] (setting [4]) and in assay [3] (setting [4]) was below 1 nM each time. In addition, the ADCC efficacy result in assay [2] (setting [5]) was “+++^f (Maximum S:B > 20 = +++)”; in assay [3] (setting [5]), “+++^g (Maximum Signal:Background > 70 = +++)”.
